Experimental data published in US20250270209A1 (INTERLINE THERAPEUTICS, INC., priority 2022, published 2025).

Assays:
[1] = molecular target: T1, wild type LRRK2 overexpressed in recombinant HEK-293T cells (Homo sapiens, UniProt Q5S007); assay: pS935 LRRK2 Cell Assay (HTRF, phospho-LRRK2 Ser935); assay type: cell-based; conditions: LRRK2 Inhibition, Table 8, 2 hours compound incubation
T1 construct: host or cells: HEK293T (transient transfection with pCMV-LRRK2 WT plasmid)
Outline: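 Phospho-Ser935 LRRK2 measured by two-antibody HTRF (Eu-cryptate donor, d2 acceptor; 665/615 nm ratio) after overnight detection at 23° C. Before lysis, transiently LRRK2-transfected HEK-293T cells were exposed 2 h at 37° C to a 9-point, 3-fold series from 10 μM, with DMSO at 0.2%.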

[2] = molecular target: LRRK2 wild type enzyme (Homo sapiens, UniProt Q5S007); assay: Biochemical Assay: LRRK2 TR-FRET (LanthaScreen) kinase assay with LRRKtide substrate; conditions: LRRK2 Inhibition, Table 8
Outline: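 TR-FRET detection (Tb-labelled phospho-LRRKtide antibody, EDTA stop, 30 min) followed a 120 min, 23 °C reaction of 3 nM wild-type human LRRK2 with LRRKtide (400 nM) and ATP (25 μM) in Tris pH 8.0. Compounds: 11-point 3-fold series from 10 μM, 15 min enzyme preincubation.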

Sequence of LRRK2 wild type enzyme (Q5S007 whole entry): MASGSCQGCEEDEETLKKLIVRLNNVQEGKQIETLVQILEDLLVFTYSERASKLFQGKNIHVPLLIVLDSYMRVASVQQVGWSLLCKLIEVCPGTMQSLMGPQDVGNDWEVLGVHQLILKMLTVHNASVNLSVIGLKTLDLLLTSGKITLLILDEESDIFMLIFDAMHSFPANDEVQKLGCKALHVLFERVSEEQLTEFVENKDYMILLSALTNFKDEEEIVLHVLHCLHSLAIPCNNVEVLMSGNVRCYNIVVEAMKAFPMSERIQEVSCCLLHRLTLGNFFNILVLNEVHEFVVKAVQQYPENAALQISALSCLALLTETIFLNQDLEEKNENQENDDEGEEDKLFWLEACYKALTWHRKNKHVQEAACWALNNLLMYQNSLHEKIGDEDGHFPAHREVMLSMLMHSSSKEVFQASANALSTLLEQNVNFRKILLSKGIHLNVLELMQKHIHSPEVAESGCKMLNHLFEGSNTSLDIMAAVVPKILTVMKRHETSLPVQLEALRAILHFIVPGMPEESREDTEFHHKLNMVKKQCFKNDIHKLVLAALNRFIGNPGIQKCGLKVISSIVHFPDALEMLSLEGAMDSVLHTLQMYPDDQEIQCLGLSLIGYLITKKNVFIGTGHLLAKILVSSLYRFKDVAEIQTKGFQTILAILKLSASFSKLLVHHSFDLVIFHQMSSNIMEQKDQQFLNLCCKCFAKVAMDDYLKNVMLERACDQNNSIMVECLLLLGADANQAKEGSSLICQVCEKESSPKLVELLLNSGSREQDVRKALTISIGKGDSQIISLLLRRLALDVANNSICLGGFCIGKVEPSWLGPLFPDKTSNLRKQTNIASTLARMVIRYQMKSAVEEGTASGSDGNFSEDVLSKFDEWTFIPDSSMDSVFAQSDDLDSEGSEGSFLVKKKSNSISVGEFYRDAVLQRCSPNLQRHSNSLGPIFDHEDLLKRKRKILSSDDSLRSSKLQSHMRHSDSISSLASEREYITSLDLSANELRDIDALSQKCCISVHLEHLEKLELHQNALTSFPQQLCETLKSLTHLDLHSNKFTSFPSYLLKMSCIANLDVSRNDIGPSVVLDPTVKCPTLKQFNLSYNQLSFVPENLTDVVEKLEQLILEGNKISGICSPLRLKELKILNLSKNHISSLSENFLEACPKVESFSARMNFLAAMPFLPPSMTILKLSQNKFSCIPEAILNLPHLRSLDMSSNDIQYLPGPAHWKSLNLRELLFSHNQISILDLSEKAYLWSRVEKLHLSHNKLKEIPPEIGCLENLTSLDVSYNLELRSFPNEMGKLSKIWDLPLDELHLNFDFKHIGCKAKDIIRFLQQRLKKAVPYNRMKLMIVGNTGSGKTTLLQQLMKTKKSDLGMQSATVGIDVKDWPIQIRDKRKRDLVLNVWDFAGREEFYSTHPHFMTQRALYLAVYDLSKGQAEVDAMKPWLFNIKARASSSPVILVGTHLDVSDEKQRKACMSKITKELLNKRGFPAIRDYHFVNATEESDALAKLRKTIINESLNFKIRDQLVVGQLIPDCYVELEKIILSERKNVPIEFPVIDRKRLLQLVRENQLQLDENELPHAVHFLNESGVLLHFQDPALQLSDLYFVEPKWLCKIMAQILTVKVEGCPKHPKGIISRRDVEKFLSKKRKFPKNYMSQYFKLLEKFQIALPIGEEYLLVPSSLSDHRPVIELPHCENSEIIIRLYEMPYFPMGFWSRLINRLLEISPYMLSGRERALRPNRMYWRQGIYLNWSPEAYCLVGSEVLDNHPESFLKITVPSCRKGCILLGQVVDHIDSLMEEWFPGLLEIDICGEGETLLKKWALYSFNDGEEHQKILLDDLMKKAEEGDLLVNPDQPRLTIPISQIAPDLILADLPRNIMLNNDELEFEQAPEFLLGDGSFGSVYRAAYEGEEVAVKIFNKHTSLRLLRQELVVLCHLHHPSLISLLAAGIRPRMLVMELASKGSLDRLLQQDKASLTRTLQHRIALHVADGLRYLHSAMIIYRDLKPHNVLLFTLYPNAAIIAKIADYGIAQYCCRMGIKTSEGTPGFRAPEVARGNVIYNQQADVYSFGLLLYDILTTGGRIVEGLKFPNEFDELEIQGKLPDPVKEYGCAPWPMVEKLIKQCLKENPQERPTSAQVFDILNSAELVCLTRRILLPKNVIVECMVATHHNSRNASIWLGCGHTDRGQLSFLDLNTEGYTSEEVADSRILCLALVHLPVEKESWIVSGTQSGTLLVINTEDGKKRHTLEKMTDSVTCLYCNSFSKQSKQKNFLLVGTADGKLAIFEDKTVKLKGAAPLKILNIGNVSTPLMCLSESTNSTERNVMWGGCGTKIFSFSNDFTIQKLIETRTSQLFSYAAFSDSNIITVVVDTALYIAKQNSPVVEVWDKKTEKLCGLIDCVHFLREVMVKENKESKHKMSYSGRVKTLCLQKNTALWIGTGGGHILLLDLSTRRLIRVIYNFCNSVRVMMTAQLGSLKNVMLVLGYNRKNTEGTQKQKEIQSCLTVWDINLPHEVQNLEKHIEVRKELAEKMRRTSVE
T1 sequence (Q5S007 whole entry): as above

| SMILES | IC50 [1] | IC50 [2] |
| --- | --- | --- |
| C[C@@H]1C[C@H](n2c(C3CC(=O)N([C@@H](C)C4CC4)C3)nc3cnc4ccc(C#N)cc4c32)CCO1 (stereo partly drawn) [Compound 35, 2-{1-[(1S)-1-cyclopropylethyl]-5-oxopyrrolidin-3-yl}-1-[(2R,4R)-2-methyloxan-4-yl]-1H-imidazo[4,5-c]quinoline-8-carbonitrile] | 179 nM | 2.98 nM |
| C[C@@H]1C[C@H](n2c([C@H]3CN(CC4CC4)C(=O)O3)nc3cnc4ccc(C#N)cc4c32)CCO1 [Compound 36, 2-[(5R)-3-(cyclopropylmethyl)-2-oxo-1,3-oxazolidin-5-yl]-1-[(2R,4R)-2-methyloxan-4-yl]-1H-imidazo[4,5-c]quinoline-8-carbonitrile] | 63.8 nM | 1.16 nM |
| C[C@@H]1C[C@H](n2c([C@@H]3CN(CC4CC4)C(=O)O3)nc3cnc4ccc(C#N)cc4c32)CCO1 [Compound 37, 2-[(5S)-3-(cyclopropylmethyl)-2-oxo-1,3-oxazolidin-5-yl]-1-[(2R,4R)-2-methyloxan-4-yl]-1H-imidazo[4,5-c]quinoline-8-carbonitrile] | 3700 nM | 53.1 nM |
| C[C@@H]1C[C@H](n2c([C@@H]3CCN(S(C)(=O)=O)C3)nc3cnc4ccc(C#N)cc4c32)CCO1 [Compound 38, 2-[(3R)-1-methanesulfonylpyrrolidin-3-yl]-1-[(2R,4R)-2-methyloxan-4-yl]-1H-imidazo[4,5-c]quinoline-8-carbonitrile] | 772 nM | 7.3 nM |
| C[C@@H]1C[C@H](n2c([C@H]3CCN(S(C)(=O)=O)C3)nc3cnc4ccc(C#N)cc4c32)CCO1 [Compound 39, 2-[(3S)-1-methanesulfonylpyrrolidin-3-yl]-1-[(2R,4R)-2-methyloxan-4-yl]-1H-imidazo[4,5-c]quinoline-8-carbonitrile] | 894 nM | 5.27 nM |
| C[C@@H]1C[C@H](n2c([C@@H]3CCN(C(=O)C4CC4)C3)nc3cnc4ccc(C#N)cc4c32)CCO1 [Compound 40, 2-[(3R)-1-cyclopropanecarbonylpyrrolidin-3-yl]-1-[(2R,4R)-2-methyloxan-4-yl]-1H-imidazo[4,5-c]quinoline-8-carbonitrile] | 685 nM | 9.19 nM |
| C[C@@H]1C[C@H](n2c([C@H]3CCN(C(=O)C4CC4)C3)nc3cnc4ccc(C#N)cc4c32)CCO1 [Compound 41, 2-[(3S)-1-cyclopropanecarbonylpyrrolidin-3-yl]-1-[(2R,4R)-2-methyloxan-4-yl]-1H-imidazo[4,5-c]quinoline-8-carbonitrile] | 639 nM | 9.62 nM |
| CC(=O)N1CC[C@@H](c2nc3cnc4ccc(C#N)cc4c3n2[C@@H]2CCO[C@H](C)C2)C1 [Compound 42, 2-[(3R)-1-acetylpyrrolidin-3-yl]-1-[(2R,4R)-2-methyloxan-4-yl]-1H-imidazo[4,5-c]quinoline-8-carbonitrile] | 2070 nM | 13 nM |
| CC(=O)N1CC[C@H](c2nc3cnc4ccc(C#N)cc4c3n2[C@@H]2CCO[C@H](C)C2)C1 [Compound 43, 2-[(3S)-1-acetylpyrrolidin-3-yl]-1-[(2R,4R)-2-methyloxan-4-yl]-1H-imidazo[4,5-c]quinoline-8-carbonitrile] | 1680 nM | 12.4 nM |
| C[C@@H]1C[C@H](n2c(C3CC(=O)N([C@@H]4CCOC4)C3)nc3cnc4ccc(C#N)cc4c32)CCO1 (stereo partly drawn) [Compound 44, 1-[(2R,4R)-2-methyloxan-4-yl]-2-{5-oxo-1-[(3R)-oxolan-3-yl]pyrrolidin-3-yl}-1H-imidazo[4,5-c]quinoline-8-carbonitrile] | 555 nM | 3.43 nM |
| C[C@@H]1C[C@H](n2c(C3CC(=O)N([C@H]4CCOC4)C3)nc3cnc4ccc(C#N)cc4c32)CCO1 (stereo partly drawn) [Compound 45, 1-[(2R,4R)-2-methyloxan-4-yl]-2-{5-oxo-1-[(3S)-oxolan-3-yl]pyrrolidin-3-yl}-1H-imidazo[4,5-c]quinoline-8-carbonitrile] | 550 nM | 3.24 nM |
